Key:
deep RSP neurons = assay: 32-channel two-shank silicon probe recording in deep RSP; assay type: in vivo, mouse; details: 50 mg/kg ketamine
Procedure: Mice were anesthetized with isoflurane, a small craniotomy (˜2 mm diameter) was performed above retrosplenial cortex, and a custom head-plate implanted. The dura was gently removed, and then covered with Kwik-Cast Sealant (World Precision Instruments). A skull screw was implanted and secured with cement in the right frontal skull bone. Mice were given 1-2 hours to recover. […] The deepest tip of the electrode was 800-1000 μm from the brain surface for all recordings.
Extracellular electrophysiological data were recorded using 32 channel acute silicon probes (ASSY-37 P-1, Cambridge Neurotech) acquired at 30 kHz. Following common average referencing, well-isolated single units were identified using KiloSort and Phy. Data were analyzed using custom Matlab scripts. Instantaneous firing rate was computed using 1 ms bins. We used a Hidden Markov Model with two states to label ON and OFF states. ON states were considered to represent bursts, and OFF states were inter-burst intervals. We fit the emission and transition parameters of the model using the Baum-Welch algorithm (Matlab hmmtrain with a convergence threshold of 1 e-6 and initial guesses of transition matrix: [0.95, 0.05; 0.05, 0.95] and emission: [0.5, 0.5; […]]), and then estimated the state assignment at each time point using the Viterbi algorithm (Matlab hmmviterbi). Various initial guesses were tested, and they yielded the same or similar model fit. For population analyses, a bin size of 2 was used. In FIG. 10, we are looking at the number of spikes in each burst, which can vary depending on the neuron being recorded, so we included every burst for every neuron. To quantify the consistency of the sequential onset of activation across bursts, we ranked each unit by its onset time for each burst. We then ordered the units according to their median rank across bursts. For each burst, we fit a linear model between the ranking in that burst and the median rank. The distribution of correlation coefficients was then plotted across bursts for each mouse and treatment condition.

mice = assay: Hot plate test
Procedure: Hot Plate Test: Mice were placed on the hot plate (Bioseb), which was set to 55° C. and surrounded by a clear circular perimeter. Mouse activity was recorded using two cameras from different angles. The experiment ended when the mouse jumped to escape or 90 seconds had elapsed. Care was taken to clean and dry the hot plate apparatus between animals. For optogenetic experiments, mice were connected to patch cords and then returned to a holding cage. Illumination began 30 seconds before mice were placed on the hot plate.

mouse = assay: Ketamine dose-effect relationship in mouse
Procedure: (2 mg/kg), lidocaine (topical), LSD ((+)-Lysergic acid diethylamide (+)-tartrate (2:1), 0.3 mg/kg), and diazepam (2 mg/kg). […] For anti-depressant effects, human doses are typically 0.3-1 mg/kg, and in mouse 3-10 mg/kg.

[1] = test system: retrosplenial cortex (RSP) neurons; assay: Two-photon imaging of RSP; assay type: in vivo, mouse
Procedure: Mice were anesthetized with isoflurane and the skull above retrosplenial cortex was removed and replaced with a 7 mm circular glass coverslip. For layer 1 experiments, ThylGcaMP6s mice were used. For layer 2/3 experiments, Cux2-CreER;Ai148 mice were used (tamoxifen dissolved in corn oil was injected intraperitoneally at 0.1 mg/g at least 2 weeks prior to imaging). For layer 5 experiments, Rbp4-Cre mice were injected locally in retrosplenial with 800 nL AAVdj-Ef1a-DIO-GCaMP6f (titer 5E12) at stereotactic coordinates (−3AP, 0.5 ML, −0.6DV). Mice were given >=1 week to recover before imaging. Awake, head-fixed imaging was performed on a standard two photon microscope (NeuroLabWare, Los Angeles, CA). A 16×0.8 NA Nikon objective was immersed in clear ultrasound gel for imaging (Aquasonic, Parker Laboratories); frame rate of 30 Hz. Although we observed oscillations in RSP with 50 mg/kg, we were concerned that 50 mg/kg may be too low a dose to sensitively detect a potentially weaker signal in visual cortex or layer 2/3, and so we used 80 mg/kg in these experiments.
Two-photon tiff stack videos were registered to the average image using the TurboReg ImageJ plug-in using rigid body transformations. […] Contaminating neuropil signal was estimated from an annulus surrounding each soma mask and removed using the function F(t)=Fsoma(t)−0.3*Fneuropil(t), where Fsoma(t) is the somatic DF/F and Fneuropil(t) is the DF/F from an annulus 4 pixels wide surrounding each soma mask. The resulting traces were detrended and z-scored. The full frame fluorescence (used for quantifying layer 1 neuropil oscillations) was computed by summing all of the pixels in each frame on each time point, and then computing DF/F the same way, with no neuropil subtraction step.
Each trace (corresponding to either a fiber photometry signal, a cellular two-photon signal, a widefield regional centroid, a widefield pixel, an sEEG trace, or a smoothed spike rate Neuropixels trace) was z-scored, and the power spectral density (PSD) was then estimated using Welch's method (pwelch( ) in Matlab), with a window size of 10*fs (15*fs for human sEEG) where fs is the sampling rate of the signal. The average band power within a specified band (i.e. 1-3 Hz) was then computed by integrating the PSD estimate (bandpower in Matlab). For displaying the traces of individual cells, traces were each zscored by subtracting the mean value of the trace (across the whole recorded time window) and dividing by the standard deviation of the trace. Unless otherwise indicated, the PSD was computed across the time window from minutes 10 to 11 post-injection.

[2] = controls (wild-type), 50 mg/kg ketamine

CNC1(c2ccccc2Cl)CCCCC1=O (stereo not shown) [ketamine]
Duration of silent states between bursts (deep RSP neurons): ~250 ms | Duration of synchronous bursts of deep RSP neurons (deep RSP neurons): ~250 ms | Participation of units in burst events (deep RSP neurons): nearly all identified units participated in every burst event | Spikes per burst of individual units (deep RSP neurons): 5-10 spikes/burst | Affective behavior (mice; GRIN1 knockouts, ketamine): without recovery of affective behavior | Affective paw-licking (mice; HCN1-KO mice with RSP Cre-virus, 50 mg/kg ketamine): strikingly restored affective paw-licking | Affective paw-licking (mice; [2]): abolished affective paw-licking | Reflexive paw-flicks (mice; [2]): preserving reflexive paw-flicks | Affective behaviors (mice; ketamine 13 mg/kg): consistently preserved at 13 mg/kg | Affective behaviors (mice; ketamine 25 mg/kg): selectively abolished at 25 mg/kg | Affective/emotional defensive behavior (paw-lick) (mice; ketamine at 25 and 50 mg/kg): abolished affective/emotional | Motivational defensive behavior (jump-to-escape) (mice; ketamine at 25 and 50 mg/kg): abolished | Reflexive responses (paw-flick) (mice; ketamine dose series): did not reduce reflexive responses | Lowest tested dose causing the oscillation and behavioral effects (mouse): 25 mg/kg | Oscillation / population synchrony in layer 2/3 RSP neurons ([1]; Cux2-CreER mice, ketamine): neither oscillating neurons nor population synchrony were observed | Oscillation / population synchrony in layer 5 RSP neurons ([1]; Rbp4-Cre mice, ketamine): exhibited synchronous activity | Hedge's g effect-size, mean 1-3 Hz power before/after ketamine, layer 2/3 RSP cells (FIG. 1I) ([1]; n=5 mice): −0.46 | Hedge's g effect-size, mean 1-3 Hz power before/after ketamine, layer 5 RSP cells (FIG. 1I) ([1]; n=5 mice): 3.16 | Oscillation in superficial neuropil, RSP vs neighboring visual cortex ([1]; two-photon, cranial window, 80 mg/kg): observed the oscillation in RSP but not neighboring visual cortex
